Data: patent US20120308570A1, “METHODS FOR TREATING DISEASES” (priority 2009, published 2012)
Residue numbers refer to the chain shown, from its start.

Key:
[1] = biological target: T1, Y120A-SSB-2ΔSB (Mus musculus, UniProt O88838, Y120A); test: ITC of Y120A mutant SSB-2 SPRY domain with iNOS peptide; format: binding; conditions: versus SSB-2ΔSB
T1 construct: tyrosine 120 had been mutated to alanine (Y120A-SSB-2ΔSB; a.a.12-224); GST (N, cleaved yes); made in house; host or cells: E. coli (bacterially expressed)
T1 sequence (O88838 12-224 Y120A): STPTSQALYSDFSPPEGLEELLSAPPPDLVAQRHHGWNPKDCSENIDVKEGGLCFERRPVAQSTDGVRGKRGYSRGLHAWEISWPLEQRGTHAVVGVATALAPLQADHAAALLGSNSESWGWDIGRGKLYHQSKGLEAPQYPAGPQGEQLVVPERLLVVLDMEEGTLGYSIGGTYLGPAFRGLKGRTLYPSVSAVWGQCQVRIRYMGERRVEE
Method: Wild-type and mutant iNOS peptides (Table 2), corresponding to Lys19-Thr31 of mouse iNOS, were synthesized by GL Biochem (Shanghai) Ltd. These peptides were N-terminal acetylated and C-terminal amidated. All ITC measurements were carried out at 25° C. using a Microcal omega VP-ITC (Microcal Inc., Northampton, Mass.). SSB-2ΔSB was dialysed against buffer (100 mM TrisHCl, 150 mM NaCl, pH 8.0), and wild-type and mutant iNOS N-terminal peptides were prepared in the same buffer from 5 mM stocks. Solutions of 5 to 10 μM SSB-2ΔSB in the cell were titrated by injection of a total of 290 μL of 50-200 μM of iNOS peptides. Data analysis was performed using the evaluation software, MicroCal Origin version 5.0. All curves were fitted using the nonlinear least-squares fitter and the “One Set of Sites” model.
Additional conserved residues flanking the DINNN (SEQ ID NO:36) sequence (Lys22, Val28 and Lys30) also contribute to the interaction, as alanine substitutions of these residues had 2- to 4-fold lower SSB-2 binding affinities than the wild-type peptide. […] Mutation of Glu21 had no effect on SSB-2:iNOS peptide binding. […] Binding of an SSB-2-SPRY domain in which tyrosine 120 had. been mutated to alanine (Y120A-SSB-2ΔSB) was assessed by ITC. The iNOS peptide bound Y120A-SSB-2ΔSB with ˜5000-fold reduced affinity, evidence that Tyr120 in SSB-2 is critical for binding to the iNOS peptide (Table 2).

[2] = biological target: T2, SSB-2ΔSB (Mus musculus, UniProt O88838); test: 1H-15N HSQC NMR titration of iNOS peptide into 15N-labelled SSB-2ΔSB; format: binding; conditions: 0.1 mM SSB-2ΔSB, ratios 1:0.5, 1:1, 1:1.5, pH 7.0, 22° C.
T2 construct: GST (N, cleaved yes); made in house; host or cells: E. coli BL21 (DE3)
T2 sequence (O88838 12-224): T1 sequence (O88838 12-224 Y120A) with A109Y
Method: NMR spectra were recorded on an Avance 500 spectrometer equipped with a cryoprobe. The ^1H chemical shifts were referenced indirectly to DSS at 0 ppm via the H2O signal, and the ^13C and ^15N chemical shifts were referenced indirectly using absolute frequency ratios (Wishart et al., 1995). Spectra were processed using Topspin version 1.3 (Bruker Biospin) and analysed using XEASY, version 1.3. ^15N-labelled SSB-2ΔSB Sample for NMR analysis were prepared in H2O containing 5% ^2H2O, 10 mM sodium phosphate, 50 mM sodium chloride, 2 mM EDTA, 2 mM DTT and 0.02% (w/v) sodium azide at pH 7.0. Two-dimensional ^1H-^15N HSQC spectrum of a 0.1 mM ^15N-labelled SSB-2ΔSB sample was recorded and 22° C. using a data matrix size of 2048×256 and with 128 scans per t1 increment. The spectral widths were 13.5 ppm for ^1H and 40.0 ppm for ^15N; carrier frequencies were 4.7 ppm for ^1H and 118 ppm for ^15N. Unlabelled iNOS N-terminal peptide (wild-type) were then titrated into the ^15N-labelled SSB-2ΔSB sample, and ^1H-^15N HSQC spectra recorded at ^15N-labelled SSB-2ΔSB:iNOS peptide ratios of 1:0.5, 1:1, and 1:1.5.
Nuclear magnetic resonance (NMR) spectroscopy was then used to further analyze the SSB-2:iNOS peptide interaction. […]

## Ac-KEEKDINNNVKKT-NH2 [I, Ac-KEEKDINNNVKKT-NH2]
[1]
  fold reduced affinity for Y120A-SSB-2ΔSB: ~5000 fold
[2]
  binding to SSB-2ΔSB by NMR: bound to SSB-2ΔSB
